ChEMBL document CHEMBL1141299, “Hologram QSAR model for the prediction of human oral bioavailability” (Bioorg Med Chem, 2007)

Assay: Oral bioavailability in human
Conditions: in vivo

Row | Structure (SMILES) | bioavailability (F) | bioavailability
1 | Cc1[nH]cnc1CN1CCc2c(c3ccccc3n2C)C1=O [ALOSETRON] | 55% | –
2 | CC(C)(C#N)c1cc(Cn2cncn2)cc(C(C)(C)C#N)c1 [ANASTROZOLE] | 84% | –
3 | CC(=O)Oc1ccccc1C(=O)O [ASPIRIN] | 68% | –
4 | CNCC[C@@H](Oc1ccccc1C)c1ccccc1 [ATOMOXETINE] | 63% | –
5 | O=C1C(O)=C([C@H]2CC[C@H](c3ccc(Cl)cc3)CC2)C(=O)c2ccccc21 [ATOVAQUONE] | 23% | –
6 | COc1ccccc1Oc1c(NS(=O)(=O)c2ccc(C(C)(C)C)cc2)nc(-c2ncccn2)nc1OCCO [BOSENTAN] | 50% | –
7 | CC(C)C[C@H]1C(=O)N2CCC[C@H]2[C@]2(O)O[C@](NC(=O)[C@@H]3C=C4c5cccc6[nH]c(Br)c(c56)C[C@H]4N(C)C3)(C(C)C)C(=O)N12 [BROMOCRIPTINE] | – | 4.5%
8 | CCCC1O[C@@H]2C[C@H]3[C@@H]4CCC5=CC(=O)C=C[C@]5(C)[C@H]4[C@@H](O)C[C@]3(C)[C@]2(C(=O)CO)O1 (some centres undefined) [BUDESONIDE] | 11% | –
9 | CCCCNc1cc(C(=O)O)cc(S(N)(=O)=O)c1Oc1ccccc1 [BUMETANIDE] | 81% | –
10 | CS(=O)(=O)OCCCCOS(C)(=O)=O [BUSULFAN] | 80% | –
11 | Cn1c(=O)c2c(ncn2C)n(C)c1=O [CAFFEINE] | 100% | –
12 | N[C@@H](C(=O)N[C@@H]1C(=O)N2C(C(=O)O)=C(Cl)CS[C@H]12)c1ccccc1 [CEFACLOR ANHYDROUS] | 90% | –
13 | Cc1nnc(SCC2=C(C(=O)O)N3C(=O)[C@@H](NC(=O)Cn4cnnn4)[C@H]3SC2)s1 [CEFAZOLIN] | 90% | –
14 | O=C(O)CCCc1ccc(N(CCCl)CCCl)cc1 [CHLORAMBUCIL] | – | 87%
15 | CCCCCCCCCCCCCCCC(=O)OC[C@@H](NC(=O)C(Cl)Cl)[C@H](O)c1ccc([N+](=O)[O-])cc1 [CHLORAMPHENICOL PALMITATE] | 80% | –
16 | O=C(N[C@H](CO)[C@H](O)c1ccc([N+](=O)[O-])cc1)C(Cl)Cl [CHLORAMPHENICOL] | 69% | –
17 | CN(C)[C@@H]1C(O)=C(C(N)=O)C(=O)[C@@]2(O)C(O)=C3C(=O)c4c(O)ccc(Cl)c4[C@@](C)(O)[C@H]3C[C@@H]12 [CHLORTETRACYCLINE] | 27.5% | –
18 | CN/C(=N/CCSCc1nc[nH]c1C)NC#N [CIMETIDINE] | – | 60%
19 | C[N+]1(CC2CC2)[C@@H]2C[C@@H](OC(=O)[C@H](CO)c3ccccc3)C[C@H]1[C@@H]1O[C@@H]12.[Br-] (some centres undefined) [CIMETROPIUM BROMIDE] | – | 2%
20 | CC[C@H]1OC(=O)[C@H](C)[C@@H](O[C@H]2C[C@@](C)(OC)[C@@H](O)[C@H](C)O2)[C@H](C)[C@@H](O[C@@H]2O[C@H](C)C[C@H](N(C)C)[C@H]2O)[C@](C)(OC)C[C@@H](C)C(=O)[C@H](C)[C@@H](O)[C@]1(C)O [CLARITHROMYCIN] | 50% | –
21 | O=C(O)[C@H]1/C(=C/CO)O[C@@H]2CC(=O)N21 [CLAVULANIC ACID] | 75% | –
22 | CCOC(=O)C(C)(C)Oc1ccc(Cl)cc1 [CLOFIBRATE] | 95% | –
23 | O=C1CN=C(c2ccccc2Cl)c2cc([N+](=O)[O-])ccc2N1 [CLONAZEPAM] | – | 90%
24 | Clc1cccc(Cl)c1N=C1NCCN1 [CLONIDINE] | 60% | –
25 | Cc1onc(-c2ccccc2Cl)c1C(=O)N[C@@H]1C(=O)N2[C@@H]1SC(C)(C)[C@@H]2C(=O)O [CLOXACILLIN] | 37% | –

Row | Structure (SMILES) | bioavailability (F) | bioavailability
26 | CN1CCN(C2=Nc3cc(Cl)ccc3Nc3ccccc32)CC1 [CLOZAPINE] | – | 55%
27 | COc1ccc2c3c1O[C@H]1[C@@H](O)C=C[C@H]4[C@@H](C2)N(C)CC[C@@]341 [CODEINE] | – | 55%
28 | O=P1(N(CCCl)CCCl)NCCCO1 (centres undefined) [CYCLOPHOSPHAMIDE ANHYDROUS] | – | 74%
29 | Nc1ccc(S(=O)(=O)c2ccc(N)cc2)cc1 [DAPSONE] | 93% | –
30 | CC(C)Nc1cccnc1N1CCN(C(=O)c2cc3cc(NS(C)(=O)=O)ccc3[nH]2)CC1 [DELAVIRDINE] | 96% | –
31 | CCN[C@@H](C)Cc1cccc(C(F)(F)F)c1 [DEXFENFLURAMINE] | – | 89%
32 | CC(C)Cc1ccc([C@H](C)C(=O)O)cc1 [DEXIBUPROFEN] | 80% | –
33 | CC(C)NC[C@@H](O)c1ccc(NS(C)(=O)=O)cc1 [DEXSOTALOL] | 60% | –
34 | C[C@@H]1COc2c(N3CCN(C)CC3)c(F)cc3c(=O)c(C(=O)O)cn1c23 [DEXTROFLOXACINE] | 97.5% | –
35 | O=C(O)c1cc(-c2ccc(F)cc2F)ccc1O [DIFLUNISAL] | 100% | –
36 | C[C@H]1O[C@@H](O[C@H]2[C@@H](O)C[C@H](O[C@H]3[C@@H](O)C[C@H](O[C@H]4CC[C@@]5(C)[C@H](CC[C@@H]6[C@@H]5CC[C@]5(C)[C@@H](C7=CC(=O)OC7)CC[C@]65O)C4)O[C@@H]3C)O[C@@H]2C)C[C@H](O)[C@@H]1O [DIGITOXIN] | – | 88.5%
37 | C[C@H]1O[C@@H](O[C@H]2[C@@H](O)C[C@H](O[C@H]3[C@@H](O)C[C@H](O[C@H]4CC[C@@]5(C)[C@H](CC[C@@H]6[C@@H]5C[C@@H](O)[C@]5(C)[C@@H](C7=CC(=O)OC7)CC[C@]65O)C4)O[C@@H]3C)O[C@@H]2C)C[C@H](O)[C@@H]1O [DIGOXIN] | 95% | –
38 | CC(C)C[C@H]1C(=O)N2CCC[C@H]2[C@]2(O)O[C@@](C)(NC(=O)[C@@H]3CC4c5cccc6[nH]cc(c56)C[C@H]4N(C)C3)C(=O)N12 (some centres undefined) [DIHYDROERGOSINE] | – | 10%
39 | COc1ccc([C@@H]2Sc3ccccc3N(CCN(C)C)C(=O)[C@@H]2OC(C)=O)cc1 [DILTIAZEM] | 40% | –
40 | CC(C)N(CC[C@@](C(N)=O)(c1ccccc1)c1ccccn1)C(C)C [DISOPIRAMIDE] | – | 83%
41 | COc1cc2nc(N3CCN(C(=O)C4COc5ccccc5O4)CC3)nc(N)c2cc1OC (centres undefined) [DOXAZOSIN] | 65% | –
42 | C[C@H]1c2cccc(O)c2C(=O)C2=C(O)[C@]3(O)C(=O)C(C(N)=O)=C(O)[C@@H](N(C)C)[C@@H]3[C@@H](O)[C@@H]21.O [DOXYCYCLINE] | 93% | –
43 | CCCCCc1cc(O)c2c(c1)OC(C)(C)[C@@H]1CCC(C)=C[C@@H]21 [DRONABINOL] | – | 15%
44 | C[C@]12C=CC(=O)N[C@@H]1CC[C@@H]1[C@@H]2CC[C@]2(C)[C@@H](C(=O)Nc3cc(C(F)(F)F)ccc3C(F)(F)F)CC[C@@H]12 [DUTASTERIDE] | – | 60%
45 | Nc1nc(=O)n([C@@H]2CS[C@H](CO)O2)cc1F [EMTRICITABINE] | 93% | –
46 | N/N=c1/cc2c(n[nH]1)CCN(C(=O)c1ccccc1)C2 [ENDRALAZINE] | 75% | –
47 | CSc1ccc(C(=O)c2[nH]c(=O)[nH]c2C)cc1 [ENOXIMONE] | 53% | –
48 | CCN(CC)CC(O)CNC(=O)c1c(OC)c2ccccc2n1-c1ccccc1 (centres undefined) [EPROXINDINE] | 70% | –
49 | CC[C@H]1OC(=O)[C@H](C)[C@@H](O[C@H]2C[C@@](C)(OC)[C@@H](O)[C@H](C)O2)[C@H](C)[C@@H](O[C@@H]2O[C@H](C)C[C@H](N(C)C)[C@H]2O)[C@](C)(O)C[C@@H](C)C(=O)[C@H](C)[C@@H](O)[C@]1(C)O [ERYTHROMYCIN] | 35% | –
50 | CN(C)CCC[C@@]1(c2ccc(F)cc2)OCc2cc(C#N)ccc21 [ESCITALOPRAM] | 80% | –

Row | Structure (SMILES) | bioavailability (F) | bioavailability
51 | C[C@H](C(=O)O)c1ccc(-c2ccccc2)c(F)c1 [ESFLURBIPROFEN] | 92% | –
52 | CCC(=O)C(C[C@H](C)N(C)C)(c1ccccc1)c1ccccc1 [ESMETHADONE] | – | 92%
53 | COc1ccc2nc([S@@+]([O-])Cc3ncc(C)c(OC)c3C)[nH]c2c1 [ESOMEPRAZOLE] | 90% | –
54 | CCCCC(=O)O[C@H]1CC[C@H]2[C@@H]3CCc4cc(O)ccc4[C@H]3CC[C@]12C [ESTRADIOL VALERATE] | 3% | –
55 | CN1CCN(C(=O)O[C@H]2c3nccnc3C(=O)N2c2ccc(Cl)cn2)CC1 [ESZOPICLONE] | – | 80%
56 | CC[C@@H](CO)NCCN[C@@H](CC)CO [ETHAMBUTOL] | 77% | –
57 | C#C[C@]1(O)CC[C@H]2[C@@H]3CCc4cc(O)ccc4[C@H]3CC[C@@]21C [ETHINYL ESTRADIOL] | 40% | –
58 | CC(=O)OCC(CCn1cnc2cnc(N)nc21)COC(C)=O [FAMCICLOVIR] | 77% | –
59 | COc1ccc(-c2nc(-c3ccc(F)cc3F)[nH]c2-c2ccc(OC)cc2)cc1 [FENFLUMIZOLE] | 50% | –
60 | Cc1onc(-c2c(F)cccc2Cl)c1C(=O)N[C@@H]1C(=O)N2[C@@H]1SC(C)(C)[C@@H]2C(=O)O [FLOXACILLIN] | 49% | –
61 | Nc1nc(=O)[nH]cc1F [FLUCYTOSINE] | 83.5% | –
62 | CC1(C)O[C@@H]2C[C@H]3[C@@H]4C[C@H](F)C5=CC(=O)C=C[C@]5(C)[C@H]4[C@@H](O)C[C@]3(C)[C@]2(C(=O)CO)O1 [FLUNISOLIDE] | 20% | –
63 | C[C@@H]1C[C@H]2[C@@H]3C[C@H](F)C4=CC(=O)C=C[C@]4(C)[C@H]3[C@@H](O)C[C@]2(C)[C@H]1C(=O)CO [FLUOCORTOLONE] | 83.5% | –
64 | OCCN1CCN(CCCN2c3ccccc3Sc3ccc(C(F)(F)F)cc32)CC1 [FLUPHENAZINE] | – | 2.7%
65 | C[C@@H]1C[C@H]2[C@@H]3C[C@H](F)C4=CC(=O)C=C[C@]4(C)[C@@]3(F)[C@@H](O)C[C@]2(C)[C@@]1(O)C(=O)SCF [FLUTICASONE] | 1% | –
66 | CC(C)n1c(/C=C/[C@H](O)C[C@H](O)CC(=O)O)c(-c2ccc(F)cc2)c2ccccc21 [FLUVASTATIN] | – | 24%
67 | NCC1(CC(=O)O)CCCCC1 [GABAPENTIN] | – | 60%
68 | COc1cc2ncnc(Nc3ccc(F)c(Cl)c3)c2cc1OCCCN1CCOCC1 [GEFITINIB] | 60% | –
69 | CO/N=C1\CN(c2nc3c(cc2F)c(=O)c(C(=O)O)cn3C2CC2)CC1CN (centres undefined) [GEMIFLOXACIN] | 71% | –
70 | CCC1=C(C)CN(C(=O)NCCc2ccc(S(=O)(=O)NC(=O)N[C@H]3CC[C@H](C)CC3)cc2)C1=O [GLIMEPIRIDE] | 100% | –
71 | COc1ccc(Cl)cc1C(=O)NCCc1ccc(S(=O)(=O)NC(=O)NC2CCCCC2)cc1 [GLYBURIDE] | 95% | –
72 | O=C(CCCN1CCC(O)(c2ccc(Cl)cc2)CC1)c1ccc(F)cc1 [HALOPERIDOL] | 60% | –
73 | NS(=O)(=O)c1cc2c(cc1Cl)NCNS2(=O)=O [HYDROCHLOROTHIAZIDE] | 71% | –
74 | CC(=O)[C@]1(O)Cc2c(O)c3c(c(O)c2[C@@H](O[C@H]2C[C@H](N)[C@H](O)[C@H](C)O2)C1)C(=O)c1ccccc1C3=O [IDARUBICIN] | 28% | –
